Tested on: recombinant UGT72L1-MBP
Assay: UGT72L1 glucosyltransferase assay with potential acceptor substrates and 14C-UDP-Glucose
Description: All assays were performed in triplicate for 1 hour at 30° C. along with boiled enzyme controls.
For studying pH optima, the buffers were 179 mM MES pH 5.0-7.0, and 179 mM Tris-HCl pH 7.0-9.0. Potential acceptor substrates were (−)-epicatechin, (−)-epigallocatechin, (+)-catechin, (+)-gallocatechin, procyanidins B1 and B2, cyanidin, dihydroquercetin, quercetin, kaemferol, apigenin, luteolin, liquiritigenin, daidzein and genistein (Sigma-Aldrich, St Louis, Mo.).

[1] = UDP-glucose as sugar donor, 0.1 mM acceptor substrate, 1 hour at 30° C., pH 7.5

Row | SMILES | activity for glucosylation (in words) [1] | further results
1 | Oc1cc(O)c2c(c1)O[C@H](c1ccc(O)c(O)c1)[C@H](O)C2 [(−)-epicatechin] |  | Km (recombinant MBP-UGT72L1 fusion protein): 11.5 µM
2 | Oc1cc(O)c2c(c1)O[C@H](c1cc(O)c(O)c(O)c1)[C@H](O)C2 [(−)-epigallocatechin] |  | activity for glucosylation, relative to the activity with epicatechin [1]: 27%
3 | O=c1cc(-c2ccc(O)cc2)oc2cc(O)cc(O)c12 [apigenin] | not active | 
4 | O=C1c2c(O)cc(O)cc2O[C@H](c2ccc(O)c(O)c2)[C@H]1O [dihydroquercetin] | not active | 
5 | O=c1c(-c2ccc(O)cc2)coc2cc(O)cc(O)c12 [genistein] | not active | 
6 | O=c1cc(-c2ccc(O)c(O)c2)oc2cc(O)cc(O)c12 [luteolin] | not active | 
7 | O=c1c(O)c(-c2ccc(O)c(O)c2)oc2cc(O)cc(O)c12 [quercetin] | not active | 
